Experimental data from US8263754B2, “Amphiphiles for protein solubilization and stabilization” (Wisconsin Alumni Research Foundation, priority 2008, dated 2012).
Values belong to the compound of their own block, whether it stands above or below them.

Tests used:
[1] = Critical micelle concentration (CMC) by dye solubilization (Orange OT or DPH); type: physicochemical; settings: for critical micelle concentration (CMC): aqueous solubilization of Orange OT; for CMC / CMC (%): determined by DPH (diphenylhexatriene) or Orange OT
Source text: Aqueous solubilization of Orange OT was used to determine critical micelle concentrations (CMC). […] Facile self-association of these amphiphiles under these conditions may be hindered by the hydrophilicity and/or steric bulk of the triglucoside and dimaltoside headgroups.
The Critical Micelle Concentrations (CMCs) of compounds of the invention can be determined by standard techniques known to those of skill in the art. For example, CMCs of the carbohydrate-based amphiphiles described herein can be determined by monitoring uptake of a dye (e.g., Orange OT or 1,6-diphenylhexatriene) with increasing detergent concentration, monitored by UV-visible or fluorescence spectroscopy.

[2] = system: LHI-RC superassembly in Rhodobacter capsulatus membranes; settings: for extraction of LHI-RC superassembly from R. capsulatus membranes: solubilized protein, optical spectroscopy; for Level (S/P solubilization rank and detergent strength): detergent at 10x CMC, 30 minutes at 32° C.
Source text: These complexes, normally embedded in the bacterial membrane, are highly pigmented and several outcomes from an assay are possible, including no degradation, partial degradation or complete degradation upon solubilization, or no solubilization. Thus, graded comparative evaluations could be obtained for a set of candidates such as the amphiphiles described herein.
In the engineered strain of R. capsulatus employed, the photosynthetic unit was comprised of a very labile LHI complex and a more resilient RC complex. An ideal amphiphile for this system will extract the intact LHI-RC superassembly from a bacterial membrane preparation and maintain the natural interactions among the components. Amphiphiles with a more disruptive effect will dissociate and denature LHI, leaving only intact RC, and even harsher amphiphiles will cause RC degradation. Each of these various outcomes can be assessed unambiguously via optical spectroscopy (FIG. 2 inset).
Measurements. The starting material for the screening protocols and stability measurements included specialized photosynthetic membranes from an engineered strain of Rhodobacter (R.) capsulatus, U43[pUHTM86Bgl]
To begin the solubilization and purification process, frozen aliquots of R. capsulatus membranes were thawed, homogenized, and equilibrated to 32° C. for 30 minutes. […] For subsequent experiments, the amphiphiles were evaluated at 10-fold CMC during the solubilization step.
The membrane samples were allowed to incubate with the amphiphile for 30 minutes at 32° C. The solubilized material was then separated from the membrane debris in an ultracentrifuge at 315,000×g at 4° C. for 30 minutes. […] After a UV-Vis-nearIR absorption spectrum was recorded, the resuspended pellet was discarded. […] The tubes were then incubated and inverted for 1 hour at 4° C.
Once binding was complete, samples were loaded onto resin-retaining spin columns (e.g., emptied His Spin Trap™ columns; GE Healthcare). The columns were then inserted into a 2 mL microcentrifuge tube to retain the filtered solution during centrifugation. […] Finally, protein was eluted into a fresh microcentrifuge tube with three 0.2 mL elution buffer aliquots (this buffer was identical to binding buffer with the addition of 1 M imidazole).
The R. capsulatus LHI-RC complexes extracted and purified by this procedure contain large numbers of cofactors that have absorptions at distinct wavelengths, and each component of the LHI-RC superassembly has a different inherent stability outside the lipid bilayer. The solubilization protocol outlined above therefore provides a multifaceted assessment of the efficacy of conventional detergents and novel amphiphiles. UV-Vis absorption spectroscopy data obtained at various stages of the protocol allow one to determine which protein components have degraded at these stages. […] The disruption potential was measured as the yield of superassembly extracted during solubilization (or, alternatively and more precisely, as the absence of superassembly in the pellet from the spin following solubilization).
The stabilizing propensity was determined from the spectra of the purified protein. An amphiphile was judged to be mild and stabilizing if it allowed the purification of fully intact LHI-RC superassembly (dominant absorption band at 875 nm). […] An amphiphile was judged to be of intermediate strength if it allowed for the purification of fully intact RC with damaged or missing LHI (dominant absorption at 800 nm with a shoulder at 875 nm; damaged LHI still bound to RC absorbs at 760 nm).
First, solubilization (illustrated in “STEP 1” of FIG. 12) denotes the ability of a surfactant to penetrate, integrate and disrupt a lipid bilayer.

[3] = Solubility in water / aqueous buffer; type: physicochemical; settings: for solubility in water: without cosolvents/additives
[4] = cited from earlier work; for Buffer Range: pH range

SMILES: CCCCC(CCCC)(CC(=O)NCCO[C@@H]1O[C@H](CO)[C@@H](O[C@H]2O[C@H](CO)[C@@H](O)[C@H](O)[C@H]2O)[C@H](O)[C@H]1O)c1ccccc1 [TPA4]
critical micelle concentration (CMC) [1]: 4.0 mM
CMC [1]: 4 mM
CMC (%) [1]: 0.25%
extraction of LHI-RC superassembly from R. capsulatus membranes [2]: extracts a significant proportion of the membrane-embedded protein

SMILES: CCCCCCCCCCCCC(=O)NCCO[C@@H]1O[C@H](CO)[C@@H](O[C@H]2O[C@H](CO)[C@@H](O)[C@H](O)[C@H]2O)[C@H](O)[C@H]1O [MPA4]
Level (S/P solubilization rank and detergent strength) [2]: insoluble
solubility in aqueous buffer [3]: not soluble in aqueous buffer
solubility in water [3]: not soluble in water without other additives

SMILES: CCCCC(CCCC)(CC(=O)NC(CO[C@@H]1O[C@H](CO)[C@@H](O[C@H]2O[C@H](CO)[C@@H](O)[C@H](O)[C@H]2O)[C@H](O)[C@H]1O)CO[C@@H]1O[C@H](CO)[C@@H](O[C@H]2O[C@H](CO)[C@@H](O)[C@H](O)[C@H]2O)[C@H](O)[C@H]1O)c1ccccc1 [TPA5]
extraction of LHI-RC superassembly from R. capsulatus membranes [2]: solubilized a small proportion of relatively intact LHI-RC superassembly

SMILES: O=S(=O)(O)CCN1CCN(CCS(=O)(=O)O)CC1 [PIPES, piperazine-N,N′-bis(2-ethanesulfonic acid)]
pKa at 25° C. [4]: 6.76
Buffer Range [4]: 6.1-7.5

SMILES: CCCCCCCCCCCCC(=O)NC(CO[C@@H]1O[C@H](CO)[C@@H](O)[C@H](O)[C@H]1O)(CO[C@@H]1O[C@H](CO)[C@@H](O)[C@H](O)[C@H]1O)CO[C@@H]1O[C@H](CO)[C@@H](O)[C@H](O)[C@H]1O [MPA3]
critical micelle concentration (CMC) [1]: 4.4 mM
CMC [1]: 4.4 mM
CMC (%) [1]: 0.35%
extraction of LHI-RC superassembly from R. capsulatus membranes [2]: did not extract any protein

SMILES: CCCCCCCCCCCCC(=O)NC(CO[C@@H]1O[C@H](CO)[C@@H](O)[C@H](O)[C@H]1O)CO[C@@H]1O[C@H](CO)[C@@H](O)[C@H](O)[C@H]1O [C12-MPA2]
critical micelle concentration (CMC) [1]: 2.4 mM
CMC [1]: 2.4 mM
CMC (%) [1]: 0.15%
yield of membrane protein complexes purified by affinity chromatography ([2]; after extraction from R. capsulatus membranes): far greater yield
membrane protein complexes in the sample extracted ([2]; intracytoplasmic membranes of R. capsulatus): ~30%
extraction of LHI-RC superassembly from R. capsulatus membranes [2]: extracted a moderate amount of intact LHI-RC superassembly

SMILES: O=C(O)CNC(CO)(CO)CO [Tricine, N-tris(hydroxymethyl)methylglycine]
Buffer Range [4]: 7.4-8.8

SMILES: OCC1O[C@H](OCC23CC4CC(CC(C4)C2)C3)[C@H](O)C(O)[C@H]1O (stereo partly shown) [TPA 42]
Level (S/P solubilization rank and detergent strength) [2]: insoluble

SMILES: CCCCCCCCCCCCC(=O)NC(CO[C@@H]1O[C@H](CO)[C@@H](O[C@H]2O[C@H](CO)[C@@H](O)[C@H](O)[C@H]2O)[C@H](O)[C@H]1O)CO[C@@H]1O[C@H](CO)[C@@H](O[C@H]2O[C@H](CO)[C@@H](O)[C@H](O)[C@H]2O)[C@H](O)[C@H]1O [MPA5]
critical micelle concentration (CMC) [1]: 1.7 mM
CMC [1]: 1.7 mM
CMC (%) [1]: 0.16%
extraction of LHI-RC superassembly from R. capsulatus membranes [2]: did not extract any protein

SMILES: CCCCC(CCCC)(CC(=O)NCCOC1OC(CO)C(O)C(O)C1O)c1ccccc1 (stereo not shown) [TPA1]
Level (S/P solubilization rank and detergent strength) [2]: insoluble
solubility in water [3]: not water-soluble without other cosolvents

SMILES: O=S(=O)(O)CCNC(CO)(CO)CO [TES, 2-{[tris(hydroxymethyl)methyl]amino}ethanesulfonic acid]
Buffer Range [4]: 6.8-8.2

SMILES: O=S(=O)(O)CCN1CCN(CCO)CC1 [HEPES, 4-2-hydroxyethyl-1-piperazineethanesulfonic acid]
Buffer Range [4]: 6.8-8.2

SMILES: NC(CO)(CO)CO [Tris, tris(hydroxymethyl)methylamine]
Buffer Range [4]: 7.5-9.0

SMILES: CCCCC(CCCC)(CC(=O)NC(COC1OC(CO)C(O)C(O)C1O)(COC1OC(CO)C(O)C(O)C1O)COC1OC(CO)C(O)C(O)C1O)c1ccccc1 (stereo not shown) [TPA3]
extraction of LHI-RC superassembly from R. capsulatus membranes [2]: no protein is extracted from the membrane

SMILES: O=S(=O)(O)CCCN1CCOCC1 [MOPS, 3-(N-morpholino)propanesulfonic acid]
Buffer Range [4]: 6.5-7.9

SMILES: OC[C@H]1O[C@@H](OCCC23CC4CC(CC(C4)C2)C3)[C@H](O)[C@@H](O)[C@@H]1O [TPA 43]
Level (S/P solubilization rank and detergent strength) [2]: insoluble

CMC [1]: 77 mM
CMC (%) [1]: 4.3%
SMILES: CCCCCCCCC(=O)NC(CO[C@@H]1O[C@H](CO)[C@@H](O)[C@H](O)[C@H]1O)CO[C@@H]1O[C@H](CO)[C@@H](O)[C@H](O)[C@H]1O [C8-MPA2]

SMILES: O=S(=O)(O)CCCNC(CO)(CO)CO [TAPS, 3-{[tris(hydroxymethyl)methyl]amino}propanesulfonic acid]
pKa at 25° C. [4]: 8.43
Buffer Range [4]: 7.7-9.1

SMILES: CCCCCCCCCCCCC(=O)NCCO[C@@H]1O[C@H](CO)[C@@H](O)[C@H](O)[C@H]1O [MPA1]
Level (S/P solubilization rank and detergent strength) [2]: insoluble
solubility in aqueous buffer [3]: not soluble in aqueous buffer
solubility in water [3]: not soluble in water without other additives

CMC [1]: 13.9 mM
CMC (%) [1]: 0.82%
SMILES: O=C(NCCO[C@@H]1O[C@H](CO)[C@@H](O[C@H]2O[C@H](CO)[C@@H](O)[C@H](O)[C@H]2O)[C@H](O)[C@H]1O)C(C1CCCCC1)C1CCCCC1 [DPA 69]

CMC [1]: 13.8 mM
CMC (%) [1]: 0.88%
SMILES: O=C(CC1(C2CCCCC2)CCCCCC1)NC(CO[C@@H]1O[C@H](CO)[C@@H](O)[C@H](O)[C@H]1O)CO[C@@H]1O[C@H](CO)[C@@H](O)[C@H](O)[C@H]1O [TPA 53]

CMC [1]: 0.89 mM
CMC (%) [1]: 0.07%
SMILES: CCCCC(CCCC)(CC(=O)NC(CO[C@@H]1O[C@H](CO)[C@@H](O)[C@H](O)[C@H]1O)CO[C@@H]1O[C@H](CO)[C@@H](O)[C@H](O)[C@H]1O)c1ccc(I)cc1 [TPA 28]

CMC [1]: 2.6 mM
CMC (%) [1]: 0.17%
SMILES: CC(C)(C)CC(C)(C)c1ccc(OCC(=O)NC(COC2OC(CO)C(O)C(O)C2O)COC2OC(CO)C(O)C(O)C2O)cc1 (stereo not shown) [CGT2]

SMILES: CCCCCCCCCCCCCCCCC(=O)NC(CO[C@@H]1O[C@H](CO)[C@@H](O)[C@H](O)[C@H]1O)CO[C@@H]1O[C@H](CO)[C@@H](O)[C@H](O)[C@H]1O [C16-MPA2]
Level (S/P solubilization rank and detergent strength) [2]: insoluble

CMC [1]: 3.3 mM
CMC (%) [1]: 0.34%
SMILES: CCCCC(CCCC)(CC(=O)NC(CO[C@@H]1O[C@H](CO)[C@@H](O[C@H]2O[C@H](CO)[C@@H](O)[C@H](O)[C@H]2O)[C@H](O)[C@H]1O)CO[C@@H]1O[C@H](CO)[C@@H](O[C@H]2O[C@H](CO)[C@@H](O)[C@H](O)[C@H]2O)[C@H](O)[C@H]1O)c1ccc(C(C)(C)C)cc1 [TPA16]
